These results are taken from patent publication US11117899B2, “[1,2,4]triazolo[1,5-c]pyrimidine derivative as A2A receptor inhibitor” (MEDSHINE DISCOVERY INC., priority 2017, dated 2021).

Molecules are shown by their SMILES. pIC50: −log10 of the molar value.

T1 sequence (P29274 whole entry): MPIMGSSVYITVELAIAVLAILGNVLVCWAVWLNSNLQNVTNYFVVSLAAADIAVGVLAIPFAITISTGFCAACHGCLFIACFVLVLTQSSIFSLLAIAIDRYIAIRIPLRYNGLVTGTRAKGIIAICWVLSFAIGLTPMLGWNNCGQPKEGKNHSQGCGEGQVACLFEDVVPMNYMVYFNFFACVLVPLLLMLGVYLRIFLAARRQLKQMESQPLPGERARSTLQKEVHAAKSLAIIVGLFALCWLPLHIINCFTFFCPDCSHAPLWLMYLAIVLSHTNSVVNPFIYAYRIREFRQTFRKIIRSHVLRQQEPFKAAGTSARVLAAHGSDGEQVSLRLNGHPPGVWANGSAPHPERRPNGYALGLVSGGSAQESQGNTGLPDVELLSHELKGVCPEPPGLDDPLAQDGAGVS

The assay has as its target T1, Human adenosine A2A receptor (Homo sapiens, UniProt P29274).
T1 construct: host or cells: CHO
The experiment in a line: Human adenosine A2A receptor calcium flux assay. It is filed as cell-based. As to conditions: A2A stable CHO cell strain, antagonist mode against agonist NECA at EC80, FLIPR Fluo-4. The protocol: Human adenosine A2A receptor calcium flux assay
A2A stable cell strain was constructed by Shanghai WuXi PharmaTech, and the host cell was CHO.
Fluo-4 Direct Kit (Invitrogen, Cat. No. F10471). After the fluorescent detection reagent (specifically binding to calcium ions and causing an increase in fluorescence signal) in the kit was incubated with the cells for a suitable period of time, the compound was added to stimulate the cells to cause changes in intracellular calcium flux, thereby causing changes in the fluorescent signal, which can reflect the strength of the agonistic or inhibitory activity of the compound.
F12+10% fetal bovine serum+geneticin 300 ug/ml+blasticidin 2 ug/ml Compound dilution buffer:
Hanks Balanced Salt Buffer (Invitrogen)+20 mM HEPES, configured before each use
The test compounds were dissolved in DMSO to prepare 10 mM stock solutions. The test compounds were diluted to 0.2 mM with DMSO, and the reference compound CGS-15943 was diluted to 0.015 mM with DMSO. Next, 10 points of three-fold serial dilutions were made with ECHO. 900 nl was transferred to the compound plate (Greiner-781280), and 30 ul of compound dilution buffer was added. The final starting concentration of the test compounds was 1 uM and CGS-15943 was 0.075 uM.
Cryopreserved A2A cells were resuscitated, and then resuspended in culture medium to 1×10^6 cells/ml. The suspension was seeded into 384-well polylysine-coated cell plates (Greiner-781946) at 20 μl/well and incubated overnight in a 5% CO2 incubator at 37° C.
The cell plate prepared the day before was taken out from the incubator, and 20 ul of 2× Fluo-4 Direct™ buffer was added to each well. The plate was incubated for 50 minutes in a 5% CO2 incubator at 37° C. and allowed to stand at room temperature for 10 minutes.
Dilution of agonist NECA: 10 points of three-fold serial dilutions were made with Echo for NECA from a starting concentration of 0.15 mM. 900 nL was then transferred to the corresponding compound plate; and then 30 μl of compound dilution buffer was added to the corresponding compound plate. The final starting concentration was 750 nM.
FLIPR instrument software was run. According to the programmed procedure, 10 ul of compound dilution buffer was added to the cell plate and the fluorescence signal was read. 10 ul of the agonist reference compound at the indicated concentration was then added to the cell plate and the fluorescent signal was read. After reading, the data was exported by the “Max-Min”, “Read 90 to Maximum allowed” method in the software, and the EC80 of the A2A cell line was calculated. The agonist was prepared at a concentration of 6× EC80. A 6× EC80 concentration of a reference compound agonist of the corresponding cells was prepared with a buffer solution, and added at 30 ul/well to the corresponding compound plate for use.
FLIPR instrument software was run. According to the programmed procedure, 10 μl of the test compounds and reference compound at an indicated concentration was added to the cell plate and the fluorescence signal was read. 10 ul of the reference compound agonist at a concentration of 6× EC80 was then added to the cell plate and the fluorescent signal was read. For the agonist detection of the compounds, the data was exported by the “Max-Min”, “Read 1 to 90” method in the software. For the antagonist detection of the compound, the data was exported by the “Max-Min”, “Read 90 to Maximum allowed” method in the software. Data were analyzed by GraphPad Prism 5.0 and the IC50 values of the test compounds were calculated.
`Cc1cc(-c2c(-c3cc(F)cc(F)c3)nc(N)n3ncnc23)cc(C(F)(F)F)n1` [Example A-5]: the pIC50 is 9.08.

With `COc1ccc(-c2nc(N)n3ncnc3c2-c2cc(C)nc(C(F)(F)F)c2)cc1` [Example A-6], the pIC50 was 8.98.

With `Cc1cc(-c2c(-c3ccccn3)nc(N)n3ncnc23)cc(C(F)(F)F)n1` [Example A-7], the pIC50 was 8.23.

For the molecule `Cc1cc(-c2c(-c3nccs3)nc(N)n3ncnc23)cc(C(F)(F)F)n1` [Example A-8], the pIC50 is 7.62.

Regarding `Cc1cc(-c2c(-c3ccc(Cl)cc3)nc(N)n3ncnc23)cc(C(F)(F)F)n1` [Example A-9], the pIC50 is 8.95.

In the case of `Cc1cc(-c2c(-c3ccc(O)cc3)nc(N)n3ncnc23)cc(C(F)(F)F)n1` [Example A-10], the pIC50 was 9.06.

`Cc1cc(-c2c(-c3ccncc3)nc(N)n3ncnc23)cc(C(F)(F)F)n1` [Example A-11]: the pIC50 was 8.41.

For the molecule `Cc1cc(-c2c(-c3cccnc3)nc(N)n3ncnc23)cc(C(F)(F)F)n1` [Example A-12], the pIC50 is 7.94.

As for `Cc1cc(-c2c(-c3ccc(C(F)(F)F)cc3)nc(N)n3ncnc23)cc(C(F)(F)F)n1` [Example A-13], the pIC50 is 7.86.

Consider `Cc1cc(-c2c(-c3ccc(C#N)cc3)nc(N)n3ncnc23)cc(C(F)(F)F)n1` [Example A-14], for which the pIC50 was 8.39.

As for `Cc1cc(-c2c(-c3ccc(F)cc3)nc(N)n3ncnc23)cc(C(F)(F)F)n1` [Example A-15], the pIC50 is 9.42.

As for `Cc1cc(-c2c(-c3ccccc3F)nc(N)n3ncnc23)cc(C(F)(F)F)n1` [Example A-17], the pIC50 is 8.89.

Regarding `Cc1cc(-c2c(-c3ccco3)nc(N)n3ncnc23)cc(C(F)(F)F)n1` [Example A-19], the pIC50 was 8.94.

With `Cc1cc(-c2c(-c3ccn(C)n3)nc(N)n3ncnc23)cc(C(F)(F)F)n1` [Example A-21], the pIC50 was 9.05.

For the molecule `COc1cc(F)ccc1-c1nc(N)n2ncnc2c1-c1cc(C)nc(C(F)(F)F)c1` [Example A-23], the pIC50 is 8.94.

`COc1cc(F)ccc1-c1nc(N)n2ncnc2c1-c1cc(C)nc(C)c1` [Example A-24]: the pIC50 is 8.31.

In the case of `Cc1cc(-c2c(-c3ccc(F)cc3F)nc(N)n3ncnc23)cc(C(F)(F)F)n1` [Example A-25], the negative-log IC50 (pIC50) is 8.94.

For `Cc1cc(-c2c(-c3ccc(F)cc3F)nc(N)n3ncnc23)cc(C)n1` [Example A-26], the pIC50 is 9.06.

Regarding `COc1ccccc1-c1nc(N)n2ncnc2c1-c1cc(C)nc(C)c1` [Example A-27], the pIC50 was 8.36.

For `Cc1cc(-c2c(-c3ccccc3Cl)nc(N)n3ncnc23)cc(C)n1` [Example A-28], the negative logarithm of the IC50 (pIC50) was 7.43.

With `COc1cc(F)ccc1-c1nc(N)n2ncnc2c1-c1ccc2nn[nH]c2c1` [Example A-29], the pIC50 was 7.43.

`COc1ccccc1-c1nc(N)n2ncnc2c1-c1ccc2nn[nH]c2c1` [Example A-30]: the pIC50 was 7.69.

Take `COc1ccccc1-c1nc(N)n2ncnc2c1-c1cc(Cl)nc(C(F)(F)F)c1` [Example A-31]: the pIC50 is 8.90.

As to `COc1ccc(F)cc1-c1nc(N)n2ncnc2c1-c1cc(Cl)nc(C(F)(F)F)c1` [Example A-32], the pIC50 is 8.92.

Regarding `COc1c(F)cc(F)cc1-c1nc(N)n2ncnc2c1-c1cc(Cl)nc(C(F)(F)F)c1` [Example A-33], the pIC50 was 7.82.

In the case of `Cc1cc(-c2c(-c3ccccc3)nc(N)n3ncnc23)ccc1F` [Example B-2], the pIC50 is 8.11.

As to `COc1ccc(-c2c(-c3ccccc3)nc(N)n3ncnc23)cc1Cl` [Example B-3], the pIC50 is 8.00.

Consider `Nc1nc(-c2ccccc2)c(-c2ccc(O)c(Cl)c2)c2ncnn12` [Example B-4], for which the pIC50 was 9.85.

As to `Nc1nc(-c2ccccc2)c(-c2ccc3[nH]ncc3c2)c2ncnn12` [Example B-7], the pIC50 is 9.77.

Consider `Nc1nc(-c2ccccc2)c(-c2ccc3[nH]cnc3c2)c2ncnn12` [Example B-8], for which the negative-log IC50 (pIC50) was 9.36.

As to `Nc1nc(-c2ccccc2)c(-c2ccc3c(c2)OCO3)c2ncnn12` [Example B-9], the pIC50 was 7.32.

As to `Nc1nc(-c2ccccc2)c(-c2ccc3[nH]nc(C(F)(F)F)c3c2)c2ncnn12` [Example B-10], the negative logarithm of the IC50 (pIC50) is 8.70.

For the molecule `Nc1nc(-c2ccccc2)c(-c2ccc(O)c(C(F)(F)F)c2)c2ncnn12` [Example B-13], the pIC50 is 9.15.

Regarding `Nc1nc(-c2ccccc2)c(-c2cc(C(F)(F)F)c3[nH]ncc3c2)c2ncnn12` [Example B-14], the pIC50 was 9.33.

For the molecule `Nc1nc(-c2ccccc2)c(-c2cc(Cl)c(O)c(Cl)c2)c2ncnn12` [Example B-15], the pIC50 is 9.36.

Consider `Nc1nc(-c2ccccc2)c(-c2ccc3ncccc3c2)c2ncnn12` [Example B-16], for which the pIC50 is 9.85.

Take `Nc1nc(-c2ccccc2)c(-c2ccc3c(c2)CCCN3)c2ncnn12` [Example B-17]: the pIC50 was 8.72.

For `Nc1nc(-c2ccccc2)c(-c2ccc3c(c2)CC(=O)N3)c2ncnn12` [Example B-20], the pIC50 is 7.15.

With `Nc1nc(-c2ccccc2)c(-c2cc(C3CC3)nc(C(F)(F)F)c2)c2ncnn12` [Example B-23], the negative logarithm of the IC50 (pIC50) is 7.30.

Consider `CC1C=C(c2c(-c3ccccc3)nc(N)n3ncnc23)CC(C)O1` (centres unmarked) [Example B-24], for which the pIC50 was 8.93.

On to `Cc1cc(Cl)cc(-c2c(-c3ccccc3)nc(N)n3ncnc23)c1` [Example B-26], for which the negative logarithm of the IC50 (pIC50) is 7.83.

Turning to `COc1cc(-c2c(-c3ccccc3)nc(N)n3ncnc23)ccn1` [Example B-27], the pIC50 is 9.55.

On to `COc1cc(-c2c(-c3ccccc3)nc(N)n3ncnc23)cc(C)n1` [Example B-29], for which the pIC50 is 9.96.

In the case of `CCc1cc(-c2c(-c3ccccc3)nc(N)n3ncnc23)cc(C(F)(F)F)n1` [Example B-32], the pIC50 was 8.55.

As to `Nc1nc(-c2ccccc2)c(-c2ccc3[nH]nnc3c2)c2ncnn12` [Example B-33], the pIC50 was 9.92.

With `CC(C)c1cc(-c2c(-c3ccccc3)nc(N)n3ncnc23)cc(C(F)(F)F)n1` [Example B-34], the pIC50 was 7.72.

Take `Cc1cc(-c2c(-c3ccccc3)nc(N)n3nc(C)nc23)cc(C(F)(F)F)n1` [Example C-5]: the pIC50 is 9.28.

As for `Cc1cc(-c2c(-c3ccccc3)nc(N)n3nc(C)nc23)cc(C)n1` [Example C-6], the pIC50 was 9.13.

`CCc1nc2c(-c3cc(C)nc(C(F)(F)F)c3)c(-c3ccccc3)nc(N)n2n1` [Example C-7]: the pIC50 is 8.87.

On to `CCc1nc2c(-c3cc(C)nc(C)c3)c(-c3ccccc3)nc(N)n2n1` [Example C-8], for which the pIC50 was 9.35.

`Cc1cc(-c2c(-c3ccccc3)nc(N)n3nc(CC4CC4)nc23)cc(C)n1` [Example C-9]: the pIC50 is 8.85.

For the molecule `Cc1cc(-c2c(-c3ccccc3)nc(N)n3nc(C4CC4)nc23)cc(C(F)(F)F)n1` [Example C-10], the pIC50 was 8.43.

Take `Cc1cc(-c2c(-c3ccccc3)nc(N)n3nc(C4CC4)nc23)cc(C)n1` [Example C-11]: the pIC50 is 9.11.

As to `Cc1cc(-c2c(-c3ccccc3)nc(N)n3nc(COCc4ccccc4)nc23)cc(C)n1` [Example C-12], the negative logarithm of the IC50 (pIC50) was 9.09.

Consider `COCc1nc2c(-c3cc(C)nc(C(F)(F)F)c3)c(-c3ccccc3)nc(N)n2n1` [Example C-13], for which the pIC50 was 8.99.

Take `COCc1nc2c(-c3cc(C)nc(C)c3)c(-c3ccccc3)nc(N)n2n1` [Example C-14]: the pIC50 was 9.17.

For `COc1ccccc1Cc1nc2c(-c3cc(C)nc(C(F)(F)F)c3)c(-c3ccccc3)nc(N)n2n1` [Example C-15], the pIC50 was 7.69.

As for `COc1ccccc1Cc1nc2c(-c3cc(C)nc(C)c3)c(-c3ccccc3)nc(N)n2n1` [Example C-16], the pIC50 is 8.75.

`Cc1cc(-c2c(-c3ccccc3)nc(N)n3nc(CC4CC4)nc23)cc(C(F)(F)F)n1` [Example C-17]: the pIC50 was 7.98.

As a reminder, the pIC50 is the negative decadic logarithm of the IC50, by convention in mol/L.
